For the first test, the system named is Jurkat. The experiment in a line: MTS proliferation assay, Jurkat. In kind it is cell-based, human. The settings on record: 72 h incubation, read-out: MTS proliferation assay IC 50 Jurkat. The procedure, abridged: (§1)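 Proliferation: RPMI-1640/FCS complete medium, 37 °C, 7.5% CO2, cells plated 24 h pre-dose; compounds at 10, 3, 1, 0.3 μM final for 72 h; MTS, 492 nm.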
Background: Tetrazolium assays rely on reduction of a dye to a coloured formazan, in cell work by metabolically active cells.
In the case of `COc1cc2nc(-c3nonc3N)n(CC(=O)c3ccccc3)c2cc1OC` [Example 113], the IC50 was greater than 1 µM.
On the same count and under the same terms, next, `COc1cc2nc(-c3nonc3N)n(CC(=O)c3ccc(Br)cc3)c2cc1OC` [Example 115]: greater than 1 µM.

The next test deals with HT1080. In words: MTS proliferation assay, HT1080. In kind it is cell-based, human. Particulars: HT1080, 72 h incubation; read-out: MTS proliferation assay IC 50 HT1080. Here is the method: Cell lines are cultured in RPMI-1640 tissue culture medium containing either 5% or 10% fetal calf serum, 0.05 mM 2-mercaptoethanol, 2 mM glutamine and penicillin/streptomycin 50 μg/ml (complete medium) (Sigma, Buchs, Switzerland). General growth conditions are 37° C. and 7.5% CO2.
The following human cell lines (either EGFP transfected or not) are being used: HeLa (ATCC: CCL-2), KB (ATCC: CCL-17), MCF7 (ATCC: HTB-22), SK-BR-3 (ATCC: HTB-30), SK-Mel 1 (ATCC: HTB-67), SK-Mel 28 (ATCC: HTB-72), PC-3 (ATCC: CRL-1435), SW 480 (ATCC: CCL-228), NCl-H460 (ATCC: HTB-177), NCl-H1792 (ATCC: CRL-5895), HT1080 (ATCC: CCL-21), Jurkat (ATCC: TIB-152), Ramos (ATCC: CRL-1596), Raji (ATCC: CCL-86), H9 (ATCC: HTB-176), Hut78 (ATCC: TIB-161), K562 (ATCC: CCL 243), HL-60 (ATCC: CCL 240), U-87MG (ATCC: HTB-14), HepG2 (ATCC: HB-8065), U-2 OS (ATCC: HTB-96), Saos-2 (ATCC: HTB-85), U937 (ATCC: CRL 1593), Hs 578T (ATCC: HTB 126), HBL-100 (ATCC: HTB 124), Molt-4 (ATCC: CRL 1582).
The assay is performed in 96 well tissue culture plates. The cells (range: 1.5*10^3-10^4) are seeded out in 80 μl complete medium 24 h prior to compound treatment. The test compounds are added in 20 μl complete medium containing max 5% DMSO. The final compound concentrations in the assays are 10 μM, 3 μM, 1 μM and 0.3 μM, respectively. The assay plates are incubated for 72 h at culture conditions. The MTS reagent is prepared according to the manufacturer's protocol (Promega G1111). 20 μl MTS reagent are added to each well, the assay plates are quickly spun and incubated for another 3 h at culture conditions. Subsequently, the plates are shortly shaked and absorption measured with a microplate-reader at 492 nm.
On to `COc1cc2nc(-c3nonc3N)n(CC(=O)c3ccccc3)c2cc1OC` [Example 113], for which the IC50 was greater than 1 µM.
Take `COc1cc2nc(-c3nonc3N)n(CC(=O)c3ccc(Br)cc3)c2cc1OC` [Example 115]: the IC50 is greater than 1 µM.

For another test, the system named is HeLa. In words: MTS proliferation assay, HeLa. In kind it is cell-based, human. Particulars: 72 h incubation, read-out: MTS proliferation assay IC 50 HeLa. The procedure, abridged:
as §1
Take `COc1cc2nc(-c3nonc3N)n(CC(=O)c3ccccc3)c2cc1OC` [Example 113]: the IC50 was greater than 1 µM.
Consider `COc1cc2nc(-c3nonc3N)n(CC(=O)c3ccc(Br)cc3)c2cc1OC` [Example 115], for which the IC50 is greater than 1 µM.

Another test relates to MRC5. The experiment in a line: MTS proliferation assay, MRC5. Particulars: MRC5, 72 h incubation; read-out: MTS proliferation assay IC 50 MRC5. In kind it is cell-based. The procedure, abridged: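 Viability after 72 h compound exposure at 10, 3, 1 and 0.3 μM final was scored by MTS absorbance (492 nm, 3 h reagent incubation), with cells kept in RPMI-1640 containing 5% or 10% fetal calf serum.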
Turning to `COc1cc2nc(-c3nonc3N)n(CC(=O)c3ccccc3)c2cc1OC` [Example 113], the IC50 was greater than 1 µM.
In the case of `COc1cc2nc(-c3nonc3N)n(CC(=O)c3ccc(Br)cc3)c2cc1OC` [Example 115], the IC50 is greater than 1 µM.

Another test deals with adherent cells or suspension cells. In words: Hoechst 33342 nuclear staining (fraction of apoptotic nuclei). Particulars: H460, conc 0.01 μm. Also on record: key: 0 relating to no activity; 1 relating to weak activity comprising less than 70% of the cells; score 2 relating to strong activity comprising more than 70% of the cells. In kind it is cell-based.
As for `COc1cc2nc(-c3nonc3N)n(CC(=O)c3ccccc3)c2cc1OC` [Example 113], the “Hoechst 33342 nuclear staining score” value is given as 0.
Take `COc1cc2nc(-c3nonc3N)n(CC(=O)c3ccc(Br)cc3)c2cc1OC` [Example 115]: the “Hoechst 33342 nuclear staining score” value came to 0.

The test is the same for the next values; noted with them: H460, conc 0.1 μm.
As to `COc1cc2nc(-c3nonc3N)n(CC(=O)c3ccccc3)c2cc1OC` [Example 113], the “Hoechst 33342 nuclear staining score” value stood at 0.
Same read-out and setting: the same measure for `COc1cc2nc(-c3nonc3N)n(CC(=O)c3ccc(Br)cc3)c2cc1OC` [Example 115]: 0.

The same test, now with this note: H460, conc 1 μm.
In the case of `COc1cc2nc(-c3nonc3N)n(CC(=O)c3ccccc3)c2cc1OC` [Example 113], the “Hoechst 33342 nuclear staining score” value came to 0.
With `COc1cc2nc(-c3nonc3N)n(CC(=O)c3ccc(Br)cc3)c2cc1OC` [Example 115], the “Hoechst 33342 nuclear staining score” value was determined as 0.

The test is the same for the next values; noted with them: HeLa, conc 0.01 μm.
Turning to `COc1cc2nc(-c3nonc3N)n(CC(=O)c3ccccc3)c2cc1OC` [Example 113], the “Hoechst 33342 nuclear staining score” value was determined as 0.
On the same count and under the same terms, next, `COc1cc2nc(-c3nonc3N)n(CC(=O)c3ccc(Br)cc3)c2cc1OC` [Example 115]: 0.

Staying with this test, now noted: HeLa, conc 0.1 μm.
Regarding `COc1cc2nc(-c3nonc3N)n(CC(=O)c3ccccc3)c2cc1OC` [Example 113], the “Hoechst 33342 nuclear staining score” value is recorded as 0.
The same measure, in the same setting: the same measure for `COc1cc2nc(-c3nonc3N)n(CC(=O)c3ccc(Br)cc3)c2cc1OC` [Example 115]: 0.

The same test, now with this note: HeLa, conc 1 μm.
In the case of `COc1cc2nc(-c3nonc3N)n(CC(=O)c3ccccc3)c2cc1OC` [Example 113], the “Hoechst 33342 nuclear staining score” value stood at 0.
For the molecule `COc1cc2nc(-c3nonc3N)n(CC(=O)c3ccc(Br)cc3)c2cc1OC` [Example 115], the “Hoechst 33342 nuclear staining score” value worked out at 0.

Staying with this test, now noted: Jily, conc 0.01 μm.
Regarding `COc1cc2nc(-c3nonc3N)n(CC(=O)c3ccccc3)c2cc1OC` [Example 113], the “Hoechst 33342 nuclear staining score” value is given as 0.
Same read-out and setting: next, `COc1cc2nc(-c3nonc3N)n(CC(=O)c3ccc(Br)cc3)c2cc1OC` [Example 115]: 0.

Staying with this test, now noted: Jily, conc 0.1 μm.
For `COc1cc2nc(-c3nonc3N)n(CC(=O)c3ccccc3)c2cc1OC` [Example 113], the “Hoechst 33342 nuclear staining score” value is reported as 0.
`COc1cc2nc(-c3nonc3N)n(CC(=O)c3ccc(Br)cc3)c2cc1OC` [Example 115]: the “Hoechst 33342 nuclear staining score” value is 0.

Still in this test, the particulars now being: Jily, conc 1 μm.
Consider `COc1cc2nc(-c3nonc3N)n(CC(=O)c3ccccc3)c2cc1OC` [Example 113], for which the “Hoechst 33342 nuclear staining score” value came to 0.
Still for that read-out and setting: the same measure for `COc1cc2nc(-c3nonc3N)n(CC(=O)c3ccc(Br)cc3)c2cc1OC` [Example 115]: 0.

The same test, now with this note: Jurkat, conc 0.01 μm.
As for `COc1cc2nc(-c3nonc3N)n(CC(=O)c3ccccc3)c2cc1OC` [Example 113], the “Hoechst 33342 nuclear staining score” value is 0.
Regarding `COc1cc2nc(-c3nonc3N)n(CC(=O)c3ccc(Br)cc3)c2cc1OC` [Example 115], the “Hoechst 33342 nuclear staining score” value is on record as 0.

Staying with this test, now noted: Jurkat, conc 0.1 μm.
Take `COc1cc2nc(-c3nonc3N)n(CC(=O)c3ccccc3)c2cc1OC` [Example 113]: the “Hoechst 33342 nuclear staining score” value was found to be 0.
On to `COc1cc2nc(-c3nonc3N)n(CC(=O)c3ccc(Br)cc3)c2cc1OC` [Example 115], for which the “Hoechst 33342 nuclear staining score” value was 0.

Still in this test, the particulars now being: Jurkat, conc 1 μm.
As to `COc1cc2nc(-c3nonc3N)n(CC(=O)c3ccccc3)c2cc1OC` [Example 113], the “Hoechst 33342 nuclear staining score” value worked out at 0.
Still for that read-out and setting: the same measure for `COc1cc2nc(-c3nonc3N)n(CC(=O)c3ccc(Br)cc3)c2cc1OC` [Example 115]: 0.

The same test, now with this note: MRC5, conc 0.01 μm.
For the molecule `COc1cc2nc(-c3nonc3N)n(CC(=O)c3ccccc3)c2cc1OC` [Example 113], the “Hoechst 33342 nuclear staining score” value was determined as 0.
For `COc1cc2nc(-c3nonc3N)n(CC(=O)c3ccc(Br)cc3)c2cc1OC` [Example 115], the “Hoechst 33342 nuclear staining score” value stood at 0.

Staying with this test, now noted: MRC5, conc 0.1 μm.
As to `COc1cc2nc(-c3nonc3N)n(CC(=O)c3ccccc3)c2cc1OC` [Example 113], the “Hoechst 33342 nuclear staining score” value came to 0.
The same measure, in the same setting: next, `COc1cc2nc(-c3nonc3N)n(CC(=O)c3ccc(Br)cc3)c2cc1OC` [Example 115]: 0.

Still in this test, the particulars now being: MRC5, conc 1 μm.
On to `COc1cc2nc(-c3nonc3N)n(CC(=O)c3ccccc3)c2cc1OC` [Example 113], for which the “Hoechst 33342 nuclear staining score” value is listed as 0.
Still for that read-out and setting: the same measure for `COc1cc2nc(-c3nonc3N)n(CC(=O)c3ccc(Br)cc3)c2cc1OC` [Example 115]: 0.

The same test, now with this note: PBLs, conc 0.01 μm.
As for `COc1cc2nc(-c3nonc3N)n(CC(=O)c3ccccc3)c2cc1OC` [Example 113], the “Hoechst 33342 nuclear staining score” value turned out to be 0.
On to `COc1cc2nc(-c3nonc3N)n(CC(=O)c3ccc(Br)cc3)c2cc1OC` [Example 115], for which the “Hoechst 33342 nuclear staining score” value came out at 0.

Staying with this test, now noted: PBLs, conc 0.1 μm.
For `COc1cc2nc(-c3nonc3N)n(CC(=O)c3ccccc3)c2cc1OC` [Example 113], the “Hoechst 33342 nuclear staining score” value was determined as 0.
Take `COc1cc2nc(-c3nonc3N)n(CC(=O)c3ccc(Br)cc3)c2cc1OC` [Example 115]: the “Hoechst 33342 nuclear staining score” value came to 0.

Staying with this test, now noted: PBLs, conc 1 μm.
`COc1cc2nc(-c3nonc3N)n(CC(=O)c3ccccc3)c2cc1OC` [Example 113]: the “Hoechst 33342 nuclear staining score” value was found to be 0.
The same measure, in the same setting: next, `COc1cc2nc(-c3nonc3N)n(CC(=O)c3ccc(Br)cc3)c2cc1OC` [Example 115]: 0.

The values above are taken from patent USRE42890E1, “Furazanobenzimidazoles” (Basilea Pharmaceutica AG, priority 2003, dated 2011).
